Results: PubChem BioAssay (NCI)
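Dose response: 5 concentrations. Exposure: 48 h. Format: 96-well plates. Endpoint: linear interpolation; highest concentration if not reached. TGI denotes the concentration required for complete inhibition of growth.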

Assays:
Experiment in all cases: DTP human tumour cell line panel, 48 h
A498 renal = system: A498 renal
HL-60(TB) leukemia = system: HL-60(TB) leukemia
IGROV1 ovarian = system: IGROV1 ovarian
MCF7 breast = system: MCF7 breast
MDA-MB-435 = system: MDA-MB-435
NCI/ADR-RES ovarian = system: NCI/ADR-RES ovarian
PC-3 prostate = system: PC-3 prostate
RPMI-8226 leukemia = system: RPMI-8226 leukemia
SF-295 CNS = system: SF-295 CNS
SK-MEL-28 melanoma = system: SK-MEL-28 melanoma
SN12C renal = system: SN12C renal

Compound	TGI (A498 renal) [µM]	TGI (HL-60(TB) leukemia) [µM]	TGI (IGROV1 ovarian) [µM]	TGI (MCF7 breast) [µM]	TGI (MDA-MB-435) [µM]	TGI (NCI/ADR-RES ovarian) [µM]	TGI (PC-3 prostate) [µM]	TGI (RPMI-8226 leukemia) [µM]	TGI (SF-295 CNS) [µM]	TGI (SK-MEL-28 melanoma) [µM]	TGI (SN12C renal) [µM]
CCN(/C=C1/C(=O)C(c2ccccc2)N(c2ccccc2)C1=O)CC (centres undefined)	> 10	> 10	> 10	> 10	> 10	> 10	> 10	> 10	> 10	> 10	> 10
CN(NC1=NCCO1)c1ccc2ccccc2c1	> 100	52.7	> 100	> 100	> 100	> 100	> 100	> 100	> 100	> 100	> 100
COC(=O)/C=C(\C(=O)OC)c1cc(C)c2cc(C(C)C)ccc(C)c1-2	> 100	> 100	> 100	72.8	> 100	> 100	> 100	> 100	> 100	> 100	> 100
Cn1c(CNc2ccc(-c3n[nH]c(=S)n3C)cc2)n[nH]c1=S		> 100	> 100	> 100	> 100	> 100	> 100		> 100	> 100	> 100
NS(=O)(=O)c1nnc(NC(=S)NC(=O)Nc2ccc(Cl)c(Cl)c2)s1		87.6	46.7	> 100	41.9	62.6	> 100	> 100	62.1	> 100	68.2
COc1ccc(CCCCNCc2cccc(CNCCCCc3ccc(OC)cc3)c2)cc1		3.98	3.32	3.06	3.63	3.19	3.55	> 100	3.77	3.73	3.64
Cc1ccc(OCC2OC(n3cnc4c(Cl)nc(Nc5cc(Cl)cc(Cl)c5)nc43)CC2Oc2ccc(C)cc2)cc1 (centres undefined)	> 100	> 100	> 100	> 100	> 100	> 100	> 100	> 100	> 100	> 100	> 100
CC(C)C(Cl)CCC(C)(Cl)C(=O)CBr (centres undefined)	30.3	> 100	16.9	4.53	14	23.6	23.2	2.52	41.2	16.3	29.4
C=C1CC[C@@H](CCC2CCC3(OC2)O[C@]2(O)CC[C@@]3(C)OC2(C)C)C(C)(C)[C@H]1C/C=C1\CCOC1=O (some centres undefined)	34.9	17	> 100	28.9	86.4	> 100	93.9	31.2		> 100	51.1
O=C(c1ccc(Cl)cc1)N(C(=O)N1CCCCC1)c1ccccc1	> 100	> 100	> 100	> 100	> 100	> 100	> 100	> 100		> 100	> 100
COc1ccc2nc3c(c(N)c2c1)C1CCC3C1(C)C (centres undefined)	70.7	68.6	> 100	> 100	> 100	> 100	> 100	58.7	69.7	> 100	> 100
Cc1ccc(S[C@@](C=O)(NC(=O)OCc2ccccc2)C(F)(F)F)cc1	> 100	41.8	54.3	78.4	86.3	51.8	54.9	57.2	> 100	67.1	91.7
NCCOc1cccc(C2(N3CCCCC3)CCCCC2)c1	98.6	89.2		> 100	33.6	> 100	> 100	48.4	77.1	35.5	> 100
NNc1nnc(CCCCCCCCc2nnc(NN)n2N)n1N	> 100	> 100	> 100	> 100	> 100	> 100	> 100		> 100	> 100	> 100
CCN1CCC(O)(c2ccc([N+](=O)[O-])cc2)C(C(=O)c2ccc([N+](=O)[O-])cc2)C1 (centres undefined)	46.2	> 100	35.5	31.4	43.5	> 100	> 100	17.8	> 100	33.5	38.8
N#Cc1c(NC(=O)C(F)(F)F)sc2c3c(=O)c4ccccc4c(=O)c=3oc3ccccc3c12	> 72.3	24.6	48.7	> 89.9	41.4	61.7	> 62.2	56.2	35.8	51.5	55.3
Clc1ccc(C=Nc2ccc(Oc3ccc(Cl)cc3)c(Cl)c2)cc1		63.8	> 100	88	82.5	58.5	69.8	> 100	37.7	61.5	36.6
CC1=NN(c2nc(N)nc(C(C)Cl)n2)C(C)(C)C1 (centres undefined)	> 100	> 100	> 100	> 100	> 100	> 100	> 100	> 100	> 100	> 100	
COC(CN(C)C(=S)Nc1cccc2ccccc12)OC	> 10	> 10	> 10	> 10	> 10	> 10	> 10	> 10	> 10	> 10	> 10
Cc1cc(N(CCC#N)CCC#N)ccc1/C(N=Nc1ccccc1)=N\NC(=O)c1cc(Cl)ccc1O	> 100	> 100	> 100	67.9	> 100	72.7	> 100	> 100	> 100		> 100
